Measured values taken from US20090204336A1, “PDZ-Domain Modulators” (Forschungsverbund Berlin e. V., priority 2005, published 2009).
Entries after “also recorded” stand apart in the source; their conditions may differ.

Columns and labels:
[1] = biological target: T1, PDZ-domain of the protein AF6 (Homo sapiens, UniProt P55196); assay: 15N-HSQC NMR binding assay (chemical shift comparison with and without test ligand); settings: for binding to the PDZ-domain of the protein AF6 (binding / non-binding): 8 to 10-fold molar excess of test ligand, 50 μM protein; for binding of compound with singly bound R3 compared with the doubly bound equivalent: singly vs doubly bound residue R3; for binding site occupation from backbone amide chemical shifts, compared with compound 1: 8 to 10-fold ligand excess, FIG. 8
T1 construct: The ubiquitarily 15N marked PDZ-domains of the proteins AF6; made in house
T1 sequence (P55196 1007-1093 limits assumed): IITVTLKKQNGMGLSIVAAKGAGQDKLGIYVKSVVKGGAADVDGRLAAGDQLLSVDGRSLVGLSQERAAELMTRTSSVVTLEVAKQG
Excerpt: The chemical shifts are split up into the 2 categories “large (bold italics)” and “small (normal letters)”. From the shown amino acid residues, the binding site of a compound on the protein can be determined by color-highlighting the backbone amide atoms of this amino acid residues in the 3D protein structure of Table 1 and creating the largest common cut set of all these atoms on the protein surface.

PDZ-domain of Syntrophin = biological target: T2, PDZ-domain of Syntrophin (Mus musculus, UniProt Q61234); assay: Kd determination by 15N-HSQC NMR titration; format: binding; settings: macroscopic (apparent) Kd ± statistical standard deviation of curve adaptation; 50 μM 15N protein, pH 6.5, 300 K
T2 construct: made in house
T2 sequence (Q61234 81-164 limits assumed): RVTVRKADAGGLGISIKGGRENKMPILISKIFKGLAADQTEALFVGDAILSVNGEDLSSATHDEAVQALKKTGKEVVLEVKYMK
Experimental: (§1) The ubiquitarily 15N marked PDZ-domains of the proteins AF6 [Boisguerin, P. et al., Chem. Biol. 11:449-459 (2004)] and Syntrophin [Schultz, J. et al., Nat Struct Biol., 5(1):19-24 (1998)] were prepared as described in the publications. For the NMR assay 50 μM 15N marked protein are mixed in a buffer of 20 mM Na phosphate pH 6.5, 50 mM NaCl and 10% d6-DMSO with a 8 to 10-fold molar excess of test ligand and a 15N-HSQC NMR spectrum is recorded at a temperature of 300 K on a Bruker DRX 600 MHz NMR spectrometer. Secondly, an identical comparison spectrum of protein in absence of test ligand is recorded. The NMR spectra are processed with the aid of the software XWIN-NMR and compared with each other with the aid of the software Sparky. […] Exemplarily is shown such a comparison of spectra for the PDZ-domain of AF6 in FIG. 7A and for the PDZ-domain of Syntrophin in FIG. 7B.
(§2) For the determination of equilibrium dissociation constants (in short: Kd values), a test ligand is added step-wise in increasing concentrations to 50 μM protein solution, and for each concentration step a 15N-HSQC NMR spectrum is recorded under the same conditions as described above. The average chemical shift of a resonance, d, is calculated according to the following equation from the NMR raw data: […]
(§3) wherein ΔH is the shift in ppm units along the 1H resonance axis, and ΔN is the shift in ppm units along the 15N resonance axis. The average shift, d, is drawn as a function of the concentration of the test ligand, and a binding curve results, to which is adapted the following mathematical equation:
(§4) wherein Lo is the total concentration of ligands, Po is the total concentration of protein and Kd is the Kd value. This equation describes the law of mass action of a reaction “protein+ligand=complex”.
(§5) With the aid of a software such as e.g. “Origin 5.0”, the adaptation is optimized in a non-linear manner, thereby providing for each investigated resonance a microscopic Kd value. From the mean value of all relevant microscopic Kd values, a macroscopic Kd value is calculated. In Table 2, the macroscopic Kd values including the statistical standard deviation for the binding of some test ligands to the PDZ-domains of AF6 and of Syntrophin are shown.
(§6) The number behind the ± symbol indicates the statistical standard deviation of a mathematical curve adaptation to the chemical binding equation “protein+ligand=complex”.

PDZ-domain of AF6 = biological target: T3, PDZ-domain of AF6 (Homo sapiens, UniProt P55196); assay: Kd determination by 15N-HSQC NMR titration; format: binding; settings: macroscopic (apparent) Kd ± statistical standard deviation of curve adaptation; 50 μM 15N protein, pH 6.5, 300 K
T3 construct: The ubiquitarily 15N marked PDZ-domains of the proteins AF6; made in house
T3 sequence (P55196 1007-1093 limits assumed): T1 sequence (P55196 1007-1093 limits assumed)
Experimental: as §1, §2, §3, §4, §5, §6

| binding to the PDZ-domain of the protein AF6 (binding / non-binding) [1] | SMILES | further results |
| --- | --- | --- |
| show a binding | O=C1NC(=S)SC1Cc1ccsc1 (centres unmarked) [Compound 5] |  |
| show a binding | O=C1NC(=S)SC1Cc1ccoc1 (centres unmarked) [Compound 4] |  |
| non-binding | CN1C(=O)C(=Cc2ccc(C(F)(F)F)cc2)SC1=S [Compound 31] |  |
| non-binding | NC1=NC(=O)C(=Cc2ccsc2)S1 [Compound 38] |  |
| particularly strong activity | O=C1NC(=O)C(Cc2ccc(C(F)(F)F)cc2)S1 (centres unmarked) [Compound 7] | Kd (PDZ-domain of Syntrophin): 330 ± 17 µM; Kd (PDZ-domain of AF6): 280 ± 22 µM |
|  | O=C1NC(=S)SC1Cc1cccc(C(F)(F)F)c1 (centres unmarked) [Compound 26] | binding of compound with singly bound R3 compared with the doubly bound equivalent [1]: weaker binding |
| binding | O=C1NC(=S)SC1=Cc1cccc(C(F)(F)F)c1 [Compound 14] |  |
| particularly strong activity | CC(c1ccc(C(F)(F)F)cc1)C1SC(=S)NC1=O (centres unmarked) [Compound 6] |  |
| show a binding | CC(C)C=C1SC(=O)NC1=O [Compound 21] | binding site occupation from backbone amide chemical shifts, compared with compound 1 [1]: missing occupation of the partial binding site of the trifluoromethylphenyl residue |
| particularly strong activity | O=C1NC(=S)SC1Cc1ccc(Br)cc1 (centres unmarked) [Compound 2] |  |
|  | O=C(O)c1cc2cc(Br)ccc2c(Br)c1O [Compound 41] | Kd (PDZ-domain of AF6): 419 ± 30 µM |
|  | O=c1[nH]c2c(Cl)c(Cl)c(Cl)cc2o1 [II] | Kd (PDZ-domain of Syntrophin): 398 ± 32 µM; Kd (PDZ-domain of AF6): 480 ± 33 µM |
|  | O=C(O)c1cccc([N+](=O)[O-])c1O [Compound 46] | binding site occupation from backbone amide chemical shifts, compared with compound 1 [1]: does not or only insufficiently occupy the binding sites L25 to V28 and S75 to T91 |
| non-binding | CN1C(=O)C(=Cc2cccc(C(F)(F)F)c2)SC1=S [Compound 32] |  |
| binding | O=C1NC(=S)SC1=Cc1ccsc1 [Compound 13] |  |

| SMILES | binding to the PDZ-domain of the protein AF6 (binding / non-binding) [1] | further results |
| --- | --- | --- |
| O=C1NC(=S)SC1=Cc1ccc(-c2ccccc2)cc1 [Compound 30] | non-binding; also recorded: do not show any binding |  |
| O=C1NC(=S)SC1=Cc1c[nH]c2ccccc12 [Compound 29] | non-binding; also recorded: do not show any binding |  |
| O=C1NC(=S)SC1Cc1ccccc1 (centres unmarked) [Compound 3] | show a binding |  |
| O=C1NC(=S)SC1=Cc1ccc(C(F)(F)F)cc1 [Compound 9] | binding; also recorded: particularly strong activity |  |
| O=C1NC(=S)SC1Cc1ccc(C(F)(F)F)cc1 (centres unmarked) [Compound 1] | show a binding; also recorded: particularly strong activity | binding of compound with singly bound R3 compared with the doubly bound equivalent [1]: stronger binding; Kd (PDZ-domain of Syntrophin): 239 ± 12 µM; Kd (PDZ-domain of AF6): 101 µM |
| CN(C)CCN=C1NC(=O)C(=Cc2ccc(C(F)(F)F)cc2)S1 [Compound 39] | non-binding |  |
| O=C1NC(=NCCCc2ccccc2)SC1=Cc1ccc(C(F)(F)F)cc1 [Compound 40] | non-binding |  |
